{"source": "paper PMC11995724", "about": "“Antibiotic target discovery by integrated phenotypic and activity-based profiling of electrophilic fragments” (Cell chemical biology, 2025)", "data": [{"test": "in vitro", "conditions": "human, hek293t cells", "units": {"viability at 48 h, 25 µM": "%"}, "values": [{"smiles": "Cc1ccc(C)c(NC(=O)C(C#N)=Cc2cccn2C)c1", "note": "[8-M07, 2-cyano-N-(2,5-dimethylphenyl)-3-(1-methyl-1H-pyrrol-2-yl)prop-2-enamide]", "viability at 48 h, 25 µM": 87.8}, {"smiles": "COc1ccc2cc(C=C(C#N)C(=O)Nc3nccs3)ccc2c1", "note": "[9-E08, 2-cyano-3-(6-methoxynaphthalen-2-yl)-N-(1,3-thiazol-2-yl)prop-2-enamide]", "viability at 48 h, 25 µM": 63.3}, {"smiles": "Cc1c(C#N)c(NC(=O)CCl)n(C2CCCCC2)c1C", "note": "[4-N18, 2-chloro-N-(3-cyano-1-cyclohexyl-4,5-dimethyl-1H-pyrrol-2-yl)acetamide]", "viability at 48 h, 25 µM": 0.0875}, {"smiles": "CC(Cl)C(=O)Nc1cc(C(C)(C)C)nn1-c1ccccc1", "note": "(centres unmarked) [4-H11, N-(3-tert-butyl-1-phenyl-1H-pyrazol-5-yl)-2-chloropropanamide]", "viability at 48 h, 25 µM": 93}, {"smiles": "CC(Cl)C(=O)N1CCN(CC(F)(F)C(F)F)CC1", "note": "(centres unmarked) [7-J07, 2-chloro-1-[4-(2,2,3,3-tetrafluoropropyl)piperazin-1-yl]propan-1-one]", "viability at 48 h, 25 µM": 96.1}, {"smiles": "O=C(CCl)NCC12CCCCC1C2(F)F", "note": "(centres unmarked) [5-C18, 2-chloro-N-({7,7-difluorobicyclo[4.1.0]heptan-1-yl}methyl)acetamide]", "viability at 48 h, 25 µM": 8.39}, {"smiles": "O=C(CCl)NCC(=O)N(c1ccccc1)c1ccccc1", "note": "[7-B12, 2-chloro-N-[(diphenylcarbamoyl)methyl]acetamide]", "viability at 48 h, 25 µM": 1.21}, {"smiles": "O=C(CCl)NC(c1ccccc1)c1cccs1", "note": "(centres unmarked) [4-J14, 2-chloro-N-[phenyl(thiophen-2-yl)methyl]acetamide]", "viability at 48 h, 25 µM": 1.95}, {"smiles": "CCCn1c(C)cc(C=C(C#N)C(=O)N2CCC2)c1C", "note": "[8-L08, 2-(azetidine-1-carbonyl)-3-(2,5-dimethyl-1-propyl-1H-pyrrol-3-yl)prop-2-enenitrile]", "viability at 48 h, 25 µM": 77.4}, {"smiles": "O=C(CCl)NC1COc2ncccc21", "note": "(centres unmarked) [7-F10, 2-chloro-N-{2H,3H-furo[2,3-b]pyridin-3-yl}acetamide]", "viability at 48 h, 25 µM": 53.7}, {"smiles": "N#CC(=Cc1cc2c(cc1[N+](=O)[O-])OCO2)C(=O)NC1CCCCC1", "note": "[8-F22, 2-cyano-N-cyclohexyl-3-(6-nitro-1,3-dioxaindan-5-yl)prop-2-enamide]", "viability at 48 h, 25 µM": 87.7}, {"smiles": "C=CC(=O)Nc1c2c(cc3c1CCC3)CCC2", "note": "[1-C11, N-(1,2,3,5,6,7-hexahydro-s-indacen-4-yl)prop-2-enamide]", "viability at 48 h, 25 µM": 45.8}, {"smiles": "O=C(CCc1ccccc1)NC1CCN(C(=O)CCl)CC1", "note": "[5-L08, N-[1-(2-chloroacetyl)piperidin-4-yl]-3-phenylpropanamide]", "viability at 48 h, 25 µM": 1.18}, {"smiles": "COc1cc(OC)c(NC(=O)CCl)cc1Cl", "note": "[4-G11, 2-chloro-N-(5-chloro-2,4-dimethoxyphenyl)acetamide]", "viability at 48 h, 25 µM": 0.402}, {"smiles": "CC1CN(S(=O)(=O)c2ccc(NC(=O)CCl)cc2)CC(C)O1", "note": "(centres unmarked) [5-O15, 2-chloro-N-{4-[(2,6-dimethylmorpholin-4-yl)sulfonyl]phenyl}acetamide]", "viability at 48 h, 25 µM": 1.43}, {"smiles": "CC(NC(=O)CCl)c1ccc(-c2ccccc2)cc1", "note": "(centres unmarked) [5-A17, N-(1-{[1,1'-biphenyl]-4-yl}ethyl)-2-chloroacetamide]", "viability at 48 h, 25 µM": 123}, {"smiles": "O=C(CCl)Nc1cccc(NC(=O)c2ccccc2)c1", "note": "[6-A03, N-[3-(2-chloroacetamido)phenyl]benzamide]", "viability at 48 h, 25 µM": -0.0459}, {"smiles": "CN(CC(=O)Nc1ccc(Cl)c(C(F)(F)F)c1)C(=O)CCl", "note": "[4-E19, 2-chloro-N-({[4-chloro-3-(trifluoromethyl)phenyl]carbamoyl}methyl)-N-methylacetamide]", "viability at 48 h, 25 µM": 0.379}, {"smiles": "C=CC(=O)N(CC1CCOCC1)C1CC1", "note": "[2-I08, N-cyclopropyl-N-[(oxan-4-yl)methyl]prop-2-enamide]", "viability at 48 h, 25 µM": 88}, {"smiles": "O=C(CCl)N(CC1CCCO1)C1CCS(=O)(=O)C1", "note": "(centres unmarked) [5-N16, 2-chloro-N-(1,1-dioxo-1lambda6-thiolan-3-yl)-N-[(oxolan-2-yl)methyl]acetamide]", "viability at 48 h, 25 µM": 2.2}, {"smiles": "C=CC(=O)N(CC)Cc1cn(C)nn1", "note": "[2-O09, N-ethyl-N-[(1-methyl-1H-1,2,3-triazol-4-yl)methyl]prop-2-enamide]", "viability at 48 h, 25 µM": 105}, {"smiles": "Cn1nc(C(F)(F)F)cc1CN(C(=O)CCl)C1CCCC1", "note": "[5-C16, 2-chloro-N-cyclopentyl-N-{[1-methyl-3-(trifluoromethyl)-1H-pyrazol-5-yl]methyl}acetamide]", "viability at 48 h, 25 µM": 0.815}, {"smiles": "C=CC(=O)Nc1ccc(-c2nnnn2C)cc1", "note": "[2-F18, N-[4-(1-methyl-1H-1,2,3,4-tetrazol-5-yl)phenyl]prop-2-enamide]", "viability at 48 h, 25 µM": 95.5}, {"smiles": "COc1ccc(NC(=O)N2CCSSCC2)cc1", "note": "[10-H21, N-(4-methoxyphenyl)-1,2,5-dithiazepane-5-carboxamide]", "viability at 48 h, 25 µM": 103}, {"smiles": "C=CC(=O)N(CC)CC(=O)N1CCn2c(nc(C)c2C)C1", "note": "[2-B18, N-(2-{2,3-dimethyl-5H,6H,7H,8H-imidazo[1,2-a]pyrazin-7-yl}-2-oxoethyl)-N-ethylprop-2-enamide]", "viability at 48 h, 25 µM": 94.8}, {"smiles": "Cn1cc(C(=O)CCl)cc1C(=O)C(Cl)(Cl)Cl", "note": "[10-N22, 2,2,2-trichloro-1-[4-(2-chloroacetyl)-1-methyl-1H-pyrrol-2-yl]ethan-1-one]", "viability at 48 h, 25 µM": 1.4}, {"smiles": "CCc1ccc(C=C(C#N)C(=O)Nc2cc(C)c(Cl)cc2OC)cc1", "note": "[8-G11, N-(4-chloro-2-methoxy-5-methylphenyl)-2-cyano-3-(4-ethylphenyl)prop-2-enamide]", "viability at 48 h, 25 µM": 92}, {"smiles": "Cc1ccc(N2C(=O)C=CC2=O)c([N+](=O)[O-])c1", "note": "[10-N13, 1-(4-methyl-2-nitrophenyl)-2,5-dihydro-1H-pyrrole-2,5-dione]", "viability at 48 h, 25 µM": 133}, {"smiles": "CC(=O)Nc1cccc(N2C(=O)C=CC2=O)c1", "note": "[10-D09, N-[3-(2,5-dioxo-2,5-dihydro-1H-pyrrol-1-yl)phenyl]acetamide]", "viability at 48 h, 25 µM": 104}, {"smiles": "COc1ccc(C)cc1NC(=O)C(C)Cl", "note": "(centres unmarked) [5-P22, 2-chloro-N-(2-methoxy-5-methylphenyl)propanamide]", "viability at 48 h, 25 µM": 108}, {"smiles": "CC(c1ccc(S(N)(=O)=O)cc1)N(C)C(=O)CCl", "note": "(centres unmarked) [7-H12, 2-chloro-N-methyl-N-[1-(4-sulfamoylphenyl)ethyl]acetamide]", "viability at 48 h, 25 µM": 0.618}, {"smiles": "O=C(CCl)Nc1ccccc1Cc1ccccc1", "note": "[4-N22, N-(2-benzylphenyl)-2-chloroacetamide]", "viability at 48 h, 25 µM": 0.906}, {"smiles": "C=CC(=O)Nc1ncc(C2CCCC(C)C2)s1", "note": "(centres unmarked) [1-J16, N-[5-(3-methylcyclohexyl)-1,3-thiazol-2-yl]prop-2-enamide]", "viability at 48 h, 25 µM": 0.801}, {"smiles": "CC(=O)N1CCC(N(Cc2cncs2)C(=O)C(C)Cl)CC1", "note": "(centres unmarked) [5-H21, N-(1-acetylpiperidin-4-yl)-2-chloro-N-[(1,3-thiazol-5-yl)methyl]propanamide]", "viability at 48 h, 25 µM": 119}, {"smiles": "N#CC(=Cc1ccc(F)cc1)C(=O)Nc1ccccc1C(F)(F)F", "note": "[8-I18, 2-cyano-3-(4-fluorophenyl)-N-[2-(trifluoromethyl)phenyl]prop-2-enamide]", "viability at 48 h, 25 µM": 81.7}, {"smiles": "Cc1cc(C(=O)CCl)c(C)n1-c1ccc(S(N)(=O)=O)cc1", "note": "[10-N14, 4-[3-(2-chloroacetyl)-2,5-dimethyl-1H-pyrrol-1-yl]benzene-1-sulfonamide]", "viability at 48 h, 25 µM": 85.8}, {"smiles": "Cc1ncccc1NC(=O)[C@H](C)NC(=O)C(C)Cl", "note": "(stereo partly drawn) [6-D09, 2-chloro-N-[(1S)-1-[(2-methylpyridin-3-yl)carbamoyl]ethyl]propanamide]", "viability at 48 h, 25 µM": 99.8}, {"smiles": "C=CC(=O)N1CCC(C(=O)Nc2ccc(N(C)C(C)=O)cc2)CC1", "note": "[2-D08, N-[4-(N-methylacetamido)phenyl]-1-(prop-2-enoyl)piperidine-4-carboxamide]", "viability at 48 h, 25 µM": 81.5}, {"smiles": "C=CC(=O)NC1CC(=O)N(CC)C1", "note": "(centres unmarked) [2-O22, N-(1-ethyl-5-oxopyrrolidin-3-yl)prop-2-enamide]", "viability at 48 h, 25 µM": 91.7}, {"smiles": "COc1ccc(Cl)cc1C(O)CNC(=O)CCl", "note": "(centres unmarked) [7-N06, 2-chloro-N-[2-(5-chloro-2-methoxyphenyl)-2-hydroxyethyl]acetamide]", "viability at 48 h, 25 µM": 0.942}, {"smiles": "COc1ccc(C=C(C#N)C(N)=O)c(Cl)c1OC", "note": "[9-H14, 3-(2-chloro-3,4-dimethoxyphenyl)-2-cyanoprop-2-enamide]", "viability at 48 h, 25 µM": 105}, {"smiles": "Cc1ncsc1C=C(C#N)C(=O)Nc1ccc(C(=O)N(C)C)cc1", "note": "[9-J16, 4-[2-cyano-3-(4-methyl-1,3-thiazol-5-yl)prop-2-enamido]-N,N-dimethylbenzamide]", "viability at 48 h, 25 µM": 118}, {"smiles": "C=CC(=O)N(C)Cc1cc2ccccc2o1", "note": "[3-I09, N-[(1-benzofuran-2-yl)methyl]-N-methylprop-2-enamide]", "viability at 48 h, 25 µM": 47.1}, {"smiles": "CC(Cl)C(=O)c1ccc(C(C)(C)C)cc1", "note": "(centres unmarked) [10-D14, 1-(4-tert-butylphenyl)-2-chloropropan-1-one]", "viability at 48 h, 25 µM": 77.6}, {"smiles": "COc1ccc(C=C(C#N)C(=O)Nc2c(C)cccc2C)cc1OC", "note": "[8-A17, 2-cyano-3-(3,4-dimethoxyphenyl)-N-(2,6-dimethylphenyl)prop-2-enamide]", "viability at 48 h, 25 µM": 82.9}, {"smiles": "O=C(CCl)Cc1c(F)cccc1F", "note": "[10-O15, 1-chloro-3-(2,6-difluorophenyl)propan-2-one]", "viability at 48 h, 25 µM": 95.8}, {"smiles": "CC1Cc2cc(C(=O)CCl)ccc2N1S(C)(=O)=O", "note": "(centres unmarked) [10-A04, 2-chloro-1-(1-methanesulfonyl-2-methyl-2,3-dihydro-1H-indol-5-yl)ethan-1-one]", "viability at 48 h, 25 µM": 0.28}, {"smiles": "Cc1cc(CNC(=O)C(C#N)=Cc2ccco2)ccc1N(C)C", "note": "[9-N09, 2-cyano-N-{[4-(dimethylamino)-3-methylphenyl]methyl}-3-(furan-2-yl)prop-2-enamide]", "viability at 48 h, 25 µM": 113}, {"smiles": "C=CC(=O)N1CCC(C(=O)Nc2ccccc2NS(C)(=O)=O)CC1", "note": "[3-C06, N-(2-methanesulfonamidophenyl)-1-(prop-2-enoyl)piperidine-4-carboxamide]", "viability at 48 h, 25 µM": 82.7}, {"smiles": "C=CCNC(=O)C(C#N)=Cc1cccc(C(F)(F)F)c1", "note": "[8-L09, 2-cyano-N-(prop-2-en-1-yl)-3-[3-(trifluoromethyl)phenyl]prop-2-enamide]", "viability at 48 h, 25 µM": 96.8}, {"smiles": "C=CC(=O)Nc1ccc(C(=O)NC2CC(C)(C)OC2=O)cc1", "note": "(centres unmarked) [3-B08, N-(5,5-dimethyl-2-oxooxolan-3-yl)-4-(prop-2-enamido)benzamide]", "viability at 48 h, 25 µM": 82.4}, {"smiles": "CC(Cl)C(=O)NCCc1ccc[nH]1", "note": "(centres unmarked) [7-L09, 2-chloro-N-[2-(1H-pyrrol-2-yl)ethyl]propanamide]", "viability at 48 h, 25 µM": 91.9}, {"smiles": "Cc1cc(C(=O)CCl)c(C)c(C)c1C", "note": "[10-I06, 2-chloro-1-(2,3,4,5-tetramethylphenyl)ethan-1-one]", "viability at 48 h, 25 µM": 0.728}]}]}
